How the values were obtained:
CYP11A1 [1] = target: T1, CYP11A1 (Homo sapiens, UniProt P05108); assay: Pregnenolone synthesis inhibition in NCI-H295R cells (pregnenolone ELISA of culture supernatant); format: cell-based; conditions: 24 hours incubation, pregnenolone in culture supernatant by ELISA
T1 construct: host or cells: NCI-H295R human adrenocortical cancer cells
T1 sequence (P05108 40-521): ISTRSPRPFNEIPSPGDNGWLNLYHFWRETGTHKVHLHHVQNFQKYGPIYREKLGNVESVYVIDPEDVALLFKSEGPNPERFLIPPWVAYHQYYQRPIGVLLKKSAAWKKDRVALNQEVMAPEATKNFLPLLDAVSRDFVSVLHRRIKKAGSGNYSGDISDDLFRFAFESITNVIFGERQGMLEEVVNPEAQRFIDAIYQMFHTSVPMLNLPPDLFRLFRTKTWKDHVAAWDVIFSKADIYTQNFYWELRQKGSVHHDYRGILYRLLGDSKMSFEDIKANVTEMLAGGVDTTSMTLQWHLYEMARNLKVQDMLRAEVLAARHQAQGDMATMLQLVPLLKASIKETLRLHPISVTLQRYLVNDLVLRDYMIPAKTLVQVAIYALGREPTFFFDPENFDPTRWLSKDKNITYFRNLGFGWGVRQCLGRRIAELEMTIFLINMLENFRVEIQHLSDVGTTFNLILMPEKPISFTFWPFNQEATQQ
Excerpt: Conversion of cholesterol into pregnenolone is a first rate-limiting step in the synthesis of all steroid hormones in vertebrates. This conversion reaction involves a two-step continuous monooxygenation reaction catalyzed by the unique cytochrome P450scc (CYP11A) to produce C22-hydroxycholesterol and C20,C22-dihydroxycholesterol in order, followed by CYP11A1-catalyzed breakage of a C20-C22 carbon-carbon single bond in C20,C22-dihydroxycholesterol to produce one molecule of pregnenolone and one molecule of 4-methylvaleraldehyde. Therefore, the inhibitory effect of a compound on CYP11A1 was identified by detecting the ability of the compound to inhibit pregnenolone synthesis.
The ability of different compounds to inhibit pregnenolone biosynthesis was determined by detecting the concentration of pregnenolone (Abnova pregnenolone ELISA kit, KA1912) using enzyme-linked immunosorbent assay (ELISA), so as to detect the ability of the compounds to inhibit CYP11A1. […] In order to determine the half-maximal inhibitory concentrations (IC50) of CYP11A1 inhibition by different compounds, the compounds were added during NCI-H295R cell culture, and after incubation, the concentration of pregnenolone in the culture supernatant was determined.
95 µl of NCI-H295R cells were taken and cultured overnight with a specialized cell culture medium (Procell, CM-0399) in a 96-well culture plate in a cell incubator at 37°C and 5% CO2. 5 µl/well of a DMSO (Sigma, D8418) solution of the compounds to be tested at different concentrations was then added, followed by continued incubation for 24 hours. The final concentrations of the compounds to be tested were 1000 nM, 333.33 nM, 111.11 nM, 37.04 nM, 12.35 nM, 4.12 nM, 1.37 nM, 0.46 nM, and 0 nM. After the incubation was complete, the cells were centrifuged, 80 µl/well of the cell culture supernatant was obtained and 1 : 8 diluted with the cell culture medium, and the concentration of pregnenolone therein was then determined by ELISA method. During ELISA detection, a pregnenolone standard was used to generate a standard curve. The experiment was carried out with replicate wells. The ELISA well plate had been coated with an anti-pregnenolone rabbit polyclonal antibody. In ELISA plate strips, 50 µl/well of the diluted culture supernatant or standard solution or reference substance was added, followed by 100 µl of a pregnenolone-HRP complex solution, and the plate was incubated for 1 hour at room temperature on a plate shaker (QILINBEIER, QB-9002) at 200 rpm. Then, the plate was washed three times with a cleaning solution, with 300 µl each time, and patted dry on absorbent paper. 150 µl of a TMB substrate was added. The plate was incubated on the plate shaker for 10-15 minutes at room temperature, and 50 µl of a stop solution was then added. The absorbance was measured at 450 nm by a microplate reader (PerkinElmer, 2105). The IC50 value was calculated by using GraphPad Prism software. [formula]

CYP11A1 [2] = target: T1, CYP11A1; assay: Testosterone synthesis inhibition in NCI-H295R cells (testosterone ELISA of culture supernatant); format: cell-based; conditions: 24 hours incubation, testosterone in culture supernatant by ELISA
Procedure: The ability of different compounds to inhibit testosterone biosynthesis was determined by detecting the concentration of testosterone (Abnova testosterone ELISA kit, KA6502) using enzyme-linked immunosorbent assay (ELISA), so as to detect the ability of the compounds to inhibit CYP11A1. In the experiment, similarly, the human adrenocortical cancer cell line NCI-H295R (Procell, CL-0399) was also used as an enzyme source. The compounds were added during NCI-H295R cell culture. After incubation, the concentration of testosterone in the culture supernatant was determined.
95 µl of NCI-H295R cells were taken and cultured overnight with a specialized cell culture medium (Procell, CM-0399) in a 96-well culture plate in a cell incubator at 37°C and 5% CO2. 5 µl/well of a DMSO (Sigma, D8418) solution of the compounds to be tested at different concentrations was then added, followed by continued incubation for 24 hours. The final concentrations of the compounds to be tested were 1000 nM, 333.33 nM, 111.11 nM, 37.04 nM, 12.35 nM, 4.12 nM, 1.37 nM, 0.46 nM, and 0 nM. After the incubation was complete, the cells were centrifuged, 80 µl/well of the cell culture supernatant was obtained, and the concentration of testosterone therein was determined by ELISA method. During ELISA detection, a testosterone standard was used to generate a standard curve. The experiment was carried out with replicate wells. The ELISA well plate had been coated with an anti-testosterone monoclonal antibody. In ELISA plate strips, 25 µl/well of the culture supernatant or standard solution or reference substance was added, followed by 200 µl of a testosterone-HRP complex solution, and the plate was incubated for 1 hour at room temperature on a plate shaker (QILINBEIER, QB-9002) at 200 rpm. Then, the plate was washed three times with a cleaning solution, with 300 µl each time, and patted dry on absorbent paper. 200 µl of a TMB substrate was added. The plate was incubated on the plate shaker for 15 minutes at room temperature, and 100 µl of a stop solution was then added. The absorbance was measured at 450 nm by a microplate reader (PerkinElmer, 2105). The IC50 value was calculated by using GraphPad Prism software. [formula]

[3] = Pharmacokinetic evaluation in ICR mice after intragastric administration (plasma, LC/MS/MS); format: in vivo; conditions: mouse, po, male ICR mice, i.g., 20 mg/kg; for AUC(0-t): read-out: Area under the curve AUC0-t; for half-life: read-out: Half-life T1/2 (converted); for Cmax: read-out: Plasma concentration Cmax
Procedure: Taking ICR mice as test animals, the drug concentration in plasma of ICR mice was determined by LC/MS/MS method at different times after intragastric administration (i.g.) with the compound of the present disclosure. The pharmacokinetic behavior of the compound of the present disclosure in ICR mice was studied and the pharmacokinetic characteristics thereof were evaluated.
27 male ICR mice were taken and randomly divided into three groups. The mice were provided by JOINN Laboratories (Suzhou) Co., Ltd. Before administration, the mice were fasted overnight for at least 12 hours. During the fasting and experiment, the drinking water was normal saline.
A certain amount of the compound to be tested was taken, and the test sample prepared with a final concentration of 2 mg/mL was taken for oral administration. The preparation solvent was 0.5% Tween 80 in a 0.5% methylcellulose aqueous solution. After the preparation was complete, a 1N hydrochloric acid aqueous solution was added for adjustment to a clear solution (pH 4-5).
The dosage was 20.0 mg/kg and the dosage volume was 10.0 ml/kg.
At 15 min, 30 min, 1 h, 2 h, 4 h, 6 h, 8 h, 10 h, and 24 h after administration, at least 0.2 mL was taken from the vein (3 animals at each time point) and placed in an EDTA-K2 anticoagulation test tube. The blood sample was collected and then placed in a labeled ice-water bath centrifuge tube, and the plasma was quickly separated by centrifugation. The centrifugation conditions were as follows: 4000 revolutions/minute, 10 minutes, and 4°C. The plasma was stored at -40°C or lower for later testing. Feed supply was resumed 4 hours after administration.
Determination of the content of the compound to be detected in the plasma of ICR mice: After the plasma sample was thawed at room temperature, 50 µL was taken and added to 300 µL of (200 ng/mL, acetonitrile, terfenadine) internal standard, the mixture was vortexed and uniformly mixed for 1 min and then centrifuged at 4°C at 15400 g for 10 min. The supernatant was taken and injected for LC/MS/MS analysis.
The main pharmacokinetic parameters, such as AUC, Cmax and t1/2, were calculated by non-compartmental analysis (NCA) method using WinNonlin software.

| SMILES | IC50 (CYP11A1 [1]) | IC50 (CYP11A1 [2]) | AUC(0-t) [3] | half-life [3] | Cmax [3] |
| --- | --- | --- | --- | --- | --- |
| CCn1c(CN2Cc3ccccc3C2)ccc(OCC2CCN(S(C)(=O)=O)CC2)c1=O [Compound 25, 1-ethyl-6-(isoindolin-2-ylmethyl)-3-((1-(methylsulfonyl)piperidine-4-yl)methoxy)pyridin-2(1H)-one] | 1.56 nM | 3.78 nM |  |  |  |
| [2H]C([2H])([2H])n1c(CN2Cc3ccccc3C2)ccc(OCC2CCN(S(=O)(=O)C(F)(F)F)CC2)c1=O [Compound 16, 6-(isoindolin-2-ylmethyl)-1-(methyl-d3)-3-((1-((trifluoromethyl)sulfonyl)piperidine-4-yl)methoxy)pyridin-2(1H)-one] | 1.03 nM | 40.2 nM |  |  |  |
| CCn1c(CN2Cc3ccccc3C2)ccc(OCC2CCN(S(=O)(=O)O)CC2)c1=O [Compound 31, 4-(((1-ethyl-6-(isoindolin-2-ylmethyl)-2-oxo-1,2-dihydropyridin-3-yl)oxy)methyl)piperidine-1-sulfonic acid] |  | > 1000 nM |  |  |  |
| CCn1c(CN2Cc3ccccc3C2)ccc(OCC2CCN(S(=O)(=O)C3CC3)CC2)c1=O [Compound 26, 3-((1-(cyclopropylsulfonyl)piperidine-4-yl)methoxy)-1-ethyl-6-(isoindolin-2-ylmethyl)pyridin-2(1H)-one] | 0.7 nM | 2.45 nM |  |  |  |
| Cn1c(CN2Cc3ccccc3C2)ccc(OCC2CCN(S(C)(=O)=O)CC2)c1=O [Compound 1, 6-(isoindolin-2-ylmethyl)-1-methyl-3-((1-(methylsulfonyl)piperidine-4-yl)methoxy)pyridin-2(1H)-one] | 4.15 nM | 17.7 nM | 9950 ng·h/mL | 0.708 h | 9720 ng/mL |
| CCn1c(CN2Cc3ccccc3C2)ccc(OCC2CCN(S(N)(=O)=O)CC2)c1=O [Compound 28, 4-(((1-ethyl-6-(isoindolin-2-ylmethyl)-2-oxo-1,2-dihydropyridin-3-yl)oxy)methyl)piperidine-1-sulfonamide] | 1.18 nM | 7.02 nM | 13600 ng·h/mL | 1.22 h | 5440 ng/mL |
| CCn1c(CN2Cc3ccccc3C2)ccc(OCC2CCN(S(=O)(=O)NS(N)(=O)=O)CC2)c1=O [Compound 30, 4-(((1-ethyl-6-(isoindolin-2-ylmethyl)-2-oxo-1,2-dihydropyridin-3-yl)oxy)methyl)-N-sulfamoylpiperidine-1-sulfonamide] | 0.648 nM | 4.04 nM |  |  |  |
| CS(=O)(=O)N1CCC(COc2coc(CN3Cc4ccccc4C3)cc2=O)CC1 [Comparative Example 1, reference compound] |  |  | 4330 ng·h/mL | 1.87 h | 7950 ng/mL |
